The source of these data is PMC8371902, “Phase 1 study of M2698, a p70S6K/AKT dual inhibitor, in patients with advanced cancer” (Journal of Hematology & Oncology, 2021).

Data set [1] concerns phospho-S6 (pS6) in peripheral blood mononuclear cells. Put plainly: pS6 in PBMCs by flow cytometry, PK/PD Emax model. In general terms: Flow cytometry measures light scatter and fluorescence of single cells or particles in a stream.
Method: Pharmacodynamic biomarker analysis consisted of measuring levels of phospho-S6 (pS6) by flow cytometry in peripheral blood mononuclear cells (PBMCs) collected on cycle 1, days 1 and 15 at predose, 2, 4, and 8 h, and at predose on cycles ≥ 2, days 1, 8 and 15; and by immunohistochemistry in tumor biopsies obtained at baseline and on treatment (cycle 2, day 1; from the same tumor when possible).
The nature of data set [2]: Food effect on M2698 pharmacokinetics (fed vs fasted, single 240 mg dose). The data set is classed as in vivo, human. The protocol: Food effect was analyzed using an analysis of variance (performed on natural log-transformed values of area under the plasma concentration-time curve from time zero to infinity (AUC0-∞) and maximum plasma concentration (Cmax) including sequence, period, and fasting/fed condition as effect).
Two single doses of 240 mg M2698 were administered 7 days apart (fed then fasted states or vice versa) to assess any effect of food on pharmacokinetics; these patients then continued treatment with either 240 mg/day or 320 mg/day M2698 as part of the dose expansion cohort. (240 mg, n=7; 320 mg, n=5)
^*Fed vs fasting following single dose of 240 mg M2698. Main analysis performed on natural log-transformed values of AUC0-∞ and Cmax including sequence, period and fasting/fed condition as effect. For one of the eight evaluable patients, no AUC under fed conditions was determined.

Data set [3] relates to patients with advanced metastatic cancer. In words: Association between PK and safety (electrocardiogram ∆QTcF, fasting glucose). The data set is classed as in vivo, human.
Where [4] appears, read: Fasted, single dose of 240 mg, n=8.

The structures appear in SMILES notation.

With `NC(=O)c1cccc2c(N[C@H](CN3CCC3)c3ccc(Cl)c(C(F)(F)F)c3)ncnc12` [M2698], in data set [1] (NONMEM estimate), the “EC50, PK/PD model of pS6 in PBMCs (plasma concentration for 50% inhibition)” value is on record as 1643 ng/mL and the “Emax, PK/PD model of pS6 in PBMCs” value is on record as 0.148. Also, in data set [1] (in vivo), the “Inhibition of pS6 levels in PBMCs” value was “dose- and concentration-dependent inhibition”. Further, in data set [2] (setting [4]), the “AUC0-∞ (90% CI)” value is listed as 40016.18 (22818.47–70175.36) ng.h/mL and the “Cmax (90% CI)” value is listed as 769.04 (410.14–1441.99) ng/mL. The “AUC0-∞ (90% CI)” value in data set [2] (Fed, single dose of 240 mg, n=7) was 38626.33 (21989.80–67849.37) ng.h/mL. The “Cmax (90% CI)” value in data set [2] (Fed, single dose of 240 mg, n=8) is reported as 934.92 (498.61–1753.02) ng/mL. For the same compound, the “Food effect on the exposure of M2698” value in data set [2] (in vivo) is “no apparent food effect”. Besides, the “Cmax Fed/fasted ratio (90% CI)” value in data set [2] (single dose of 240 mg, p=0.3917) is reported as 1.2157 (0.8058–1.8341) p=0.3917. Besides, the “AUC0-∞ Fed/fasted ratio (90% CI)” value in data set [2] (single dose of 240 mg, p=0.6504) was 0.9653 (0.8326–1.1191) p=0.6504. Besides, the “Changes in mean electrocardiogram data” value in data set [3] (across all cohorts) was “no clinically relevant changes”. In data set [3] (in vivo), the “Correlation between exposure and fasting glucose levels” value is given as “no correlation”.
